According to ChEMBL document CHEMBL1201862, “PubChem BioAssay data set” (2004):
One block for each molecule: values may come before it. Calls of active or inactive are those of the source.

Assays:
[1] = molecular target: T1, High affinity choline transporter 1 (Homo sapiens, UniProt Q9GZV3); test: human choline transporter blockers, potency – cell-based, 5-point CRC, membrane potential dye, dose response (AID 504840); type: functional
T1 sequence (Q9GZV3 whole entry): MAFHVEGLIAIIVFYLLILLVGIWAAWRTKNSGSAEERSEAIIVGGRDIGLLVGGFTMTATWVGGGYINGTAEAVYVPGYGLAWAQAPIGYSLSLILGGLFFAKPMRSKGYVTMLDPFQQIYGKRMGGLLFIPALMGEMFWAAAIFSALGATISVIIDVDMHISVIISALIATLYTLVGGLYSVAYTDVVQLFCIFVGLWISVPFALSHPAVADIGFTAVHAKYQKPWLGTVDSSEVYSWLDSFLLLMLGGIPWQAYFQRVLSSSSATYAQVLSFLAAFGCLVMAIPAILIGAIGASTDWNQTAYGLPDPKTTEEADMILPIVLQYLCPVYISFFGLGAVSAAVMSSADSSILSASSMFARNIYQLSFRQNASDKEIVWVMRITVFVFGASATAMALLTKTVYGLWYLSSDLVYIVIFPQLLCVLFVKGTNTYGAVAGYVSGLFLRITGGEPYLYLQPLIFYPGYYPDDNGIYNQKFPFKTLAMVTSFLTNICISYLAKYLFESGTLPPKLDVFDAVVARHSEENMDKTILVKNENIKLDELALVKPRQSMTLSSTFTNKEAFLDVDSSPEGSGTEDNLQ

[2] = molecular target: T1, High affinity choline transporter 1; test: human choline transporter blockers, potency – cell-based, 10-point CRC, membrane potential dye, dose response (AID 588401); type: functional;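 further: membrane potential dye fluorescence of choline-evoked depolarization via CHT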
[3] = molecular target: T1, High affinity choline transporter 1; test: human choline transporter radiolabel uptake blockers – cell-based, 3H-choline uptake, CHT LV-AA trafficking mutant, CRC, dose response (AID 602208); type: functional
[4] = molecular target: Potassium voltage-gated channel subfamily KQT member 2 (Rattus norvegicus, UniProt O88943); test: blockers of KCNQ2 channel current – cell-based, automated electrophysiology, set II, rat KCNQ2, dose response (AID 588637); type: functional
Potassium voltage-gated channel subfamily KQT member 2, sequence (O88943 whole entry): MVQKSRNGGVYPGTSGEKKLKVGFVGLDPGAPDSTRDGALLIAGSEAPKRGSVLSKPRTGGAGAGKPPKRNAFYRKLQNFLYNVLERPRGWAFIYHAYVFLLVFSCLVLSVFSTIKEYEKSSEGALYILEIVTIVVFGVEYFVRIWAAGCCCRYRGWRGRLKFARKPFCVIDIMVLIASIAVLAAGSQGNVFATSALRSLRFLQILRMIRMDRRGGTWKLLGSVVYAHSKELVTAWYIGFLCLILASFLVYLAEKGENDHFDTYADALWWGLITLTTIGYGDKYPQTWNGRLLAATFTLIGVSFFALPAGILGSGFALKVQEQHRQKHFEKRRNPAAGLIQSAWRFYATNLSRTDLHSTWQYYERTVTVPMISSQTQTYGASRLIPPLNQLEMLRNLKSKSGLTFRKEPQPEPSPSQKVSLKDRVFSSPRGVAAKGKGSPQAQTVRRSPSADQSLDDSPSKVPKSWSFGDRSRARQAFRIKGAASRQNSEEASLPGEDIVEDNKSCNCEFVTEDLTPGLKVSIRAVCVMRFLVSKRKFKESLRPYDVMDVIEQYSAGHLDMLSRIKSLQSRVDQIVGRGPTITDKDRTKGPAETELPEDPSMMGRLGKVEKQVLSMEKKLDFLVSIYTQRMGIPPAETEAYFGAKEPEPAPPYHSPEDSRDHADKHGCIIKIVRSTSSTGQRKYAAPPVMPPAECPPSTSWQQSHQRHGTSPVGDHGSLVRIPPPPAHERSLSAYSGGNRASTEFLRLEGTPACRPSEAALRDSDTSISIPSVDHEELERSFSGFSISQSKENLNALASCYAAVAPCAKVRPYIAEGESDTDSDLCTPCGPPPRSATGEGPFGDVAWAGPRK

[5] = molecular target: Dual specificity protein phosphatase 3 (Homo sapiens, UniProt P51452); test: VHR phosphatase inhibition, dose response, selectivity assay for STEP inhibitor project, biochemical (AID 602374); type: functional; details: read-out: IC50_Mean
Dual specificity protein phosphatase 3, sequence (P51452 whole entry): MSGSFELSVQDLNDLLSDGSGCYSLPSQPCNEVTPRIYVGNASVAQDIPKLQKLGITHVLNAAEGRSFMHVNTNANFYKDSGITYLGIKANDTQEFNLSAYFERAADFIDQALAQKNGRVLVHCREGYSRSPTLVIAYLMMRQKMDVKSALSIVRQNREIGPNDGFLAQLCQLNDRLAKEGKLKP

[6] = molecular target: Tyrosine-protein phosphatase non-receptor type 11 (Homo sapiens, UniProt Q06124); test: PTPN11 enzyme inhibitors – biochemical, selectivity assay for STEP inhibitor project, dose response (AID 602367); type: functional; details: read-out: IC50_Mean
[7] = molecular target: T2, Caspase-6 (Homo sapiens, UniProt P55212); test: inhibition of CASP6 peptide cleavage – biochemical, VEID-R110 fluorescence, cherry-pick, dose response (AID 720632)
T2 sequence (P55212 whole entry): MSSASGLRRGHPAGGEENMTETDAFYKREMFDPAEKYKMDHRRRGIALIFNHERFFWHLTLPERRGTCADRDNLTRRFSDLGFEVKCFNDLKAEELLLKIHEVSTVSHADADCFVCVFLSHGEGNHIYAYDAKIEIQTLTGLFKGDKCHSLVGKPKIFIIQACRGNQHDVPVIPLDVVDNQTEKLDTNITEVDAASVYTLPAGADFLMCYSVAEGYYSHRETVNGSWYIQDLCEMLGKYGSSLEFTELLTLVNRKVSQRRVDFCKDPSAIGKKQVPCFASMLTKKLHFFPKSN

[8] = molecular target: Tyrosine-protein phosphatase non-receptor type 5 (Homo sapiens, UniProt P54829); test: PTPN5 enzyme inhibition – biochemical, fluorescence intensity, uHTS hits, confirmation (AID 602372); type: functional; details: read-out: IC50_Mean
Tyrosine-protein phosphatase non-receptor type 5, sequence (P54829 whole entry): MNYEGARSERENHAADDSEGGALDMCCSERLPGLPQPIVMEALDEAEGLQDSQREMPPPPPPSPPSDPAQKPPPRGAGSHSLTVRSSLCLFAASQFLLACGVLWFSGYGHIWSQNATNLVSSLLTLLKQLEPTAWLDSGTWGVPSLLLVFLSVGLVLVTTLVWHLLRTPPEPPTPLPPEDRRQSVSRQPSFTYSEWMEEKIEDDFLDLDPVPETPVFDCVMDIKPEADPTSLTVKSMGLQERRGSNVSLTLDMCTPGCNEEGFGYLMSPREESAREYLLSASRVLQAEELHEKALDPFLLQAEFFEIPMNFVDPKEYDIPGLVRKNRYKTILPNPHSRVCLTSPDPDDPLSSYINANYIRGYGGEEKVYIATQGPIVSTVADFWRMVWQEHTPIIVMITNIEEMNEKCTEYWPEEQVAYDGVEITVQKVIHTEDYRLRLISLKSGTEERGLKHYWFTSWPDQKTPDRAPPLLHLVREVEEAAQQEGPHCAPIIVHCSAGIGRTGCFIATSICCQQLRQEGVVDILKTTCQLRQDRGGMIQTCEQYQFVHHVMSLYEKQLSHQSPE

[9] = molecular target: Melanocortin receptor 4 (Homo sapiens, UniProt P32245); type: functional, cell-based;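 further: Cell-based assay with luminescence read-out, confirmatory dose-response testing for agonist activity of biased ligands at MC4R; human U2OS cells with tagged receptor and beta-arrestin; potency of agonists that increase receptor coupling to beta-arrestin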
Melanocortin receptor 4, sequence (P32245 whole entry): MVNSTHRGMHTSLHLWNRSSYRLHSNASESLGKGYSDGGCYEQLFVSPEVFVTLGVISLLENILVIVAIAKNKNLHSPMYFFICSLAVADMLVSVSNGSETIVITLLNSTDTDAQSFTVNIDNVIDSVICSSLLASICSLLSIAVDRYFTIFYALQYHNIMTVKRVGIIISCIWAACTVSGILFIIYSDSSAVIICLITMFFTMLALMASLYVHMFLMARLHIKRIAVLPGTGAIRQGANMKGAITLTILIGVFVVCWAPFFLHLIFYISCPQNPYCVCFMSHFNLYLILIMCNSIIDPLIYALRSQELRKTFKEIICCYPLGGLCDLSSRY

[10] = molecular target: T3, Apoptotic protease-activating factor 1 (Homo sapiens, UniProt O14727); test: SAR analysis of small molecule Activators of Apaf-1 in a Fluorescent assay.; type: functional; details: read-out: EC50_Mean;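 further: caspase-3 cleavage of fluorogenic Rh110 DEVD substrate downstream of apoptosome activation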
T3 sequence (O14727 whole entry): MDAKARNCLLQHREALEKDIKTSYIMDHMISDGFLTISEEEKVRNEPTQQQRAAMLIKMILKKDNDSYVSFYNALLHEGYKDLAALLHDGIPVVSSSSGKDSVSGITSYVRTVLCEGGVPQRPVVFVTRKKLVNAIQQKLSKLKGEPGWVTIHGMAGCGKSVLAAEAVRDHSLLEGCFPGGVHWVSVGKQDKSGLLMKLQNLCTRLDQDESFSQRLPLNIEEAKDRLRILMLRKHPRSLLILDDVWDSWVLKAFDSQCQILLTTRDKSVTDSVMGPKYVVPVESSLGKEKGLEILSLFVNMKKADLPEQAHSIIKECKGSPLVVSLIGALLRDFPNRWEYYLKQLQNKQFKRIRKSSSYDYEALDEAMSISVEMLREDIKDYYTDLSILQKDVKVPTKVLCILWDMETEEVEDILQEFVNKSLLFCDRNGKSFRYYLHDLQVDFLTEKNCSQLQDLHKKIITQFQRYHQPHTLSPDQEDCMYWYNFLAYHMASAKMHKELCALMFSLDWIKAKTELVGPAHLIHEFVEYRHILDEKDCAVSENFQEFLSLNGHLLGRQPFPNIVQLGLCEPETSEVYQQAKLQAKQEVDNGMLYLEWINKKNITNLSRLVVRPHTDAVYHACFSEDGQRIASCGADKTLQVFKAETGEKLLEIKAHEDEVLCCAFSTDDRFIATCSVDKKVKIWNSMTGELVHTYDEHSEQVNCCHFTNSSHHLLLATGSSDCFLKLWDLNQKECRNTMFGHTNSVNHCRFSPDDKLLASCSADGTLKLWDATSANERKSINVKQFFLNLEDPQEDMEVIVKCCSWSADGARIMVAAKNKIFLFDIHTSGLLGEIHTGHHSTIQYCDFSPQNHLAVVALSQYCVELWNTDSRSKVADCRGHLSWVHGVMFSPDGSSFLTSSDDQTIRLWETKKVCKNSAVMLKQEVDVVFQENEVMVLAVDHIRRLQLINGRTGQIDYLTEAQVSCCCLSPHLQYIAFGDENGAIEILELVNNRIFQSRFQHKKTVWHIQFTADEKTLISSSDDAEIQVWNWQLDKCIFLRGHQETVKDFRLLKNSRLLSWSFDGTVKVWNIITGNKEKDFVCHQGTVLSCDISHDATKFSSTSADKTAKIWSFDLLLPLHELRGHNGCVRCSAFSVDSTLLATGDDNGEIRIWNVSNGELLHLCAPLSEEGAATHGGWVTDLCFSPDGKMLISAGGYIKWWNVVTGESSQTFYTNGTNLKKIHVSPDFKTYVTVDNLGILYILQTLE

[11] = molecular target: T4, Low molecular weight phosphotyrosine protein phosphatase (Homo sapiens, UniProt P24666); type: functional; details: read-out: IC50_Mean;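 further: Dose-response confirmation assay measuring inhibition of LMPTP enzyme activity by fluorescence intensity read-out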
T4 sequence (P24666 whole entry): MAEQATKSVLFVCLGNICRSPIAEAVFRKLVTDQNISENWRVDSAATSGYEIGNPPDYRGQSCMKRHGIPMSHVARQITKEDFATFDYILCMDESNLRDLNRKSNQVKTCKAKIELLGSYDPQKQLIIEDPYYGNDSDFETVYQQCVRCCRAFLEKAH

[12] = molecular target: Mitochondrial peptide methionine sulfoxide reductase (Bos taurus, UniProt P54149); type: functional;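 further: absorbance read-out, biochemical high-throughput dose-response screen for MsrA inhibitors, confirmatory; recombinant bovine MsrA coupled to E. coli TrxB with NADPH and selenocystamine; potency is for inhibitors of MsrA activity on DMSO substrate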
Mitochondrial peptide methionine sulfoxide reductase, sequence (P54149 whole entry): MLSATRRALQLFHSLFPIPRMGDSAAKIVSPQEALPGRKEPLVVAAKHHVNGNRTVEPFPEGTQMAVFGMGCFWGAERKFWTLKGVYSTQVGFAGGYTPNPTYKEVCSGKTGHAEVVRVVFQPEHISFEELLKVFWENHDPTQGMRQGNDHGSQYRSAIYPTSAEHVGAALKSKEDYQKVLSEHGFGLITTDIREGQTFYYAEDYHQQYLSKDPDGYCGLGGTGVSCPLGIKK

[13] = molecular target: T5, Aminopeptidase N (Plasmodium falciparum FcB1/Columbia, UniProt O96935); test: malaria alanyl aminopeptidase activity blockers – biochemical, fluorogenic H-Leu-NHMec substrate, 1536-well (AID 1445); parameters: species or system Plasmodium falciparum 3D7, 3D7
T5 sequence (O96935 whole entry): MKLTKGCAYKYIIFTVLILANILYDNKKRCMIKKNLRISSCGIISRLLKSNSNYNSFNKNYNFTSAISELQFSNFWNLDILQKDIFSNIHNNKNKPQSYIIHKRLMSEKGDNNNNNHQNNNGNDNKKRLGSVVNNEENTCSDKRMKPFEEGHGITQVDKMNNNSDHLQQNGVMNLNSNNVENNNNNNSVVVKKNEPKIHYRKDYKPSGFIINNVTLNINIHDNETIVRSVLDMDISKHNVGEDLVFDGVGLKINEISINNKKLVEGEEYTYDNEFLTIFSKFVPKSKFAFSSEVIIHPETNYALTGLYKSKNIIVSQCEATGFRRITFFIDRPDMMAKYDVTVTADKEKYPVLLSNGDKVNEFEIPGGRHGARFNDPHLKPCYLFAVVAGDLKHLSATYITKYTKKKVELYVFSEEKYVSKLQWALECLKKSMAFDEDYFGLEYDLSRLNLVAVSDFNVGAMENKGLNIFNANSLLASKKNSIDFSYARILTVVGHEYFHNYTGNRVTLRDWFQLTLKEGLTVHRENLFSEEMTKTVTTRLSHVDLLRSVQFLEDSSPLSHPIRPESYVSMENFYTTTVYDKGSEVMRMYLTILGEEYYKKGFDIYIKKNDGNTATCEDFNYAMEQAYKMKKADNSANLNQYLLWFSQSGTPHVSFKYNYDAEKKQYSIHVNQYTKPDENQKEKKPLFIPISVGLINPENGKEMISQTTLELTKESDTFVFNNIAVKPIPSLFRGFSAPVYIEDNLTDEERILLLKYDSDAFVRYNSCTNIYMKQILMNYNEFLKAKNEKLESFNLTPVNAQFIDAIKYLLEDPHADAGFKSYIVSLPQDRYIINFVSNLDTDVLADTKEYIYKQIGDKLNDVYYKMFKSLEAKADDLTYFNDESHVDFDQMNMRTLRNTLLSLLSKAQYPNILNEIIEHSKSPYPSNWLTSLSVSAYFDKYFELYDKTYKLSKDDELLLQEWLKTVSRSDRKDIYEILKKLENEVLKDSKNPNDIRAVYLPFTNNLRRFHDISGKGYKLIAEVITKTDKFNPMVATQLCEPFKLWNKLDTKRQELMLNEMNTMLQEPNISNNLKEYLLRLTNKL

IC50 [5]: 4.92 µM (active)
IC50 [6]: 3.01 µM (active)
AC50 [7]: 2.58 µM (active)
IC50 [8]: 14.2 µM (active)
SMILES: O=C(Nc1cccc2c(=O)[nH][nH]c(=O)c12)c1ccc([N+](=O)[O-])cc1

EC50 [9]: > 89.2 µM (inactive)
SMILES: COc1ccc(-c2cnc3c(NC(C)=O)cc(-c4ccccc4OC)cn23)cc1OC

EC50 [10]: > 100 µM (inactive)
SMILES: O=C(O)c1cc(-c2cc(F)c(F)cc2F)[nH]n1

Second part, the molecule before the results:

SMILES: CC1CCC(NC(=O)c2cccc(S(=O)(=O)N3CCN(C)CC3)c2)CC1 (stereo not drawn)
IC50 [1]: 4.17 µM (active)
IC50 [2]: 2.05 µM (active)
IC50 [3]: 4.68 µM (active)

SMILES: CC1=C(C(=O)NC(C)c2ccc3c(c2)OCCO3)C2(CCC(C)CC2)OC1=O (stereo not drawn)
IC50 [4]: 12 µM (active)

SMILES: CCc1ccc(C=C2SC(=S)N(CCCC(=O)Nc3ccc(C(=O)O)cc3)C2=O)cc1
IC50 [11]: 80 µM (inactive)

SMILES: O=C(O)c1cc(-c2ccc(/C=N/N3C(=O)C4C5C=CC(C6CC56)C4C3=O)o2)ccc1Cl (stereo not drawn)
IC50 [12]: 122 µM (inactive)
IC50 [13]: 90.7 µM (active)
